Blank lines part the entries; values can stand above or below the compound they belong to.
Test: solvent given as SMILES
[1] = in N#Cc1ccc2c(c1)c1ccccc1n2-c1cccc(-n2c3ccccc3c3ccccc32)c1

Structure (SMILES): COc1ccc2c(c1)c(C#N)cc1c(OC)c(OC)c3cc(C#N)c4cc(OC)ccc4c3c12
fluorescence lifetime (in ClC(Cl)Cl): 6 ns

Structure (SMILES): CCCCCn1c2ccccc2c(=O)c2ccccc21
fluorescence lifetime (in CS(C)=O): 8.1 ns

Structure (SMILES): COC(=O)C12N=N[C@](C(=O)OC)(C3C4CCC(C4)C31)[C@@]1(C)C[C@@H]21 (some centres undefined)
fluorescence lifetime (in CC#N): 116 ns

Structure (SMILES): C(=C\c1nc(/C=C/c2ccc(-n3c4ccccc4c4ccccc43)cc2)nc(/C=C/c2ccc(-n3c4ccccc4c4ccccc43)cc2)n1)/c1ccc(-n2c3ccccc3c3ccccc32)cc1
fluorescence lifetime (in C1CCOC1): 3.31 ns
fluorescence lifetime (in CC#N): 2.03 ns
fluorescence lifetime (in Cc1ccccc1): 3.87 ns
fluorescence lifetime (in ClCCl): 4.03 ns

Structure (SMILES): Cc1cc2nc3[nH]c(=O)n(C)c(=O)c3nc2cc1C
fluorescence lifetime (in CC#N): 0.64 ns

Structure (SMILES): COc1ccc(N(c2ccc(/C=C(\C)c3ccccc3)cc2)c2ccc(/C=C(\C)c3ccccc3)cc2)cc1
fluorescence lifetime (in Cc1ccccc1): 1.5 ns

Structure (SMILES): Cc1cc(C)c2nc3c(=O)[nH]c(=O)[nH]c3nc2c1
fluorescence lifetime (in CC#N): 1.24 ns

Structure (SMILES): Cc1cccc(C)c1/C=C/c1nc(N2CCOCC2)c2c([n+]1[O-])CCCC2
fluorescence lifetime (in ClCCl): 9.1 ns

Structure (SMILES): CCC[Si](CCC)(CCC)c1cc2ccc3cccc4ccc(c1C(=O)NC(C)(C)C)c2c34
fluorescence lifetime (in ClC(Cl)Cl): 6.91 ns

Structure (SMILES): CC(C)[Si]1(C(C)C)c2cc(C=C(C#N)C#N)ccc2-c2ccc(N(C)C)cc21
fluorescence lifetime (in C1CCCCC1): 0.3 ns
fluorescence lifetime (in ClCCl): 3.2 ns

Structure (SMILES): O=C1/C(=C2\Nc3cc4ccc5cccc6ccc(c3C2=O)c4c56)Nc2cc3ccc4cccc5ccc(c21)c3c45
fluorescence lifetime (in C1CCOC1): 0.42 ns

Structure (SMILES): COC(=O)C(NC(=O)OC(C)(C)C)c1ccc2oc(-c3ccc(OC(=O)c4ccccc4)cc3O)nc2c1 (centres undefined)
fluorescence lifetime (in CC1CCCCC1): 0.64 ns
fluorescence lifetime (in CC#N): 0.3 ns
fluorescence lifetime (in CO): 0.027 ns

Structure (SMILES): COC(=O)C(NC(=O)OC(C)(C)C)c1ccc2oc(-c3cc(OC)c(OC)c(OC)c3)nc2c1 (centres undefined)
fluorescence lifetime (in CC1CCCCC1): 1.01 ns
fluorescence lifetime (in CC#N): 1.2 ns
fluorescence lifetime (in CO): 1.28 ns

Structure (SMILES): COc1ccc2c(c1)C(=O)c1ccccc1-2
fluorescence lifetime (in C1CCCCC1): 9.9 ns
fluorescence lifetime (in CC#N): 1.8 ns

Structure (SMILES): c1csc(-c2ccc(-c3cccs3)c3nsnc23)c1
fluorescence lifetime (in ClC(Cl)Cl): 10.2 ns

Structure (SMILES): Cn1c2ccc(S(=O)(=O)O)cc2c(=O)c2cc(S(=O)(=O)O)ccc21
fluorescence lifetime (in CS(C)=O): 10.6 ns
fluorescence lifetime (in O): 16.7 ns

Structure (SMILES): Cc1ccc(/C2=c3\cc/c(o3)=C(\c3ccc(C)cc3)c3ccc([nH]3)-c3ccc4n3[P-](=O)(=O)[N+]3=C(C=CC3=C4c3cccs3)c3ccc2[nH]3)cc1
fluorescence lifetime (in ClC(Cl)Cl): 4.3 ns

Structure (SMILES): c1ccc(-c2nn(-c3ccccc3)c3nc4ccc(N(c5ccccc5)c5cccc6ccccc56)cc4cc23)cc1
fluorescence lifetime (in C1CCCCC1): 11.3 ns
fluorescence lifetime (in C1CCOC1): 15.5 ns
fluorescence lifetime (in CC#N): 16.3 ns
fluorescence lifetime (in CC(C)=O): 19.3 ns
fluorescence lifetime (in CCCCCl): 14.9 ns
fluorescence lifetime (in CCCCOCCCC): 12.9 ns
fluorescence lifetime (in CN(C)C=O): 15.8 ns

Structure (SMILES): Nc1ccc(/C=C/c2cccnc2)cc1
fluorescence lifetime (in CC#N): 0.18 ns
fluorescence lifetime (in CCCCCC): 0.22 ns

Structure (SMILES): CCCCOC(=O)c1cc(Oc2ccc(C(C)(C)C)cc2)c2c3c(Cl)cc4c5c(cc(Cl)c(c6c(Oc7ccc(C(C)(C)C)cc7)cc(C(=O)OCCCC)c1c26)c53)C(=O)N(c1c(C(C)C)cccc1C(C)C)C4=O
fluorescence lifetime (in Cc1ccccc1): 6.42 ns

Structure (SMILES): Fc1c(-c2nnc(-c3ccccc3)o2)c(-n2c3ccccc3c3ccccc32)c(F)c(-n2c3ccccc3c3ccccc32)c1-n1c2ccccc2c2ccccc21
fluorescence lifetime (in Cc1ccccc1): 7.7 ns

Structure (SMILES): CN(C)c1ccc(C#Cc2ccccc2)cc1
fluorescence lifetime (in C1CCCCC1): 0.38 ns
fluorescence lifetime (in C1CCOC1): 0.589 ns
fluorescence lifetime (in C1COCCO1): 0.71 ns
fluorescence lifetime (in CC1CCCO1): 0.414 ns
fluorescence lifetime (in CC#N): 1.25 ns
fluorescence lifetime (in CC(C)=O): 1.83 ns
fluorescence lifetime (in CC(C)CC(C)(C)C): 0.35 ns
fluorescence lifetime (in CCCCCCCCCCCCCCCC): 0.43 ns
fluorescence lifetime (in CCCCCCCCCCCCCCCCCl): 0.66 ns
fluorescence lifetime (in CCOC(C)=O): 1.16 ns
fluorescence lifetime (in CCOCC): 0.411 ns
fluorescence lifetime (in CN(C)C=O): 1.24 ns
fluorescence lifetime (in CS(C)=O): 0.757 ns
fluorescence lifetime (in Cc1ccccc1): 0.58 ns

Structure (SMILES): c1ccc(-c2cc(-c3ccccc3)cc(-c3ccc4c(c3)C3(c5ccccc5-4)c4ccccc4-c4c3c3c5ccccc5c(-c5cc(-c6ccccc6)cc(-c6ccccc6)c5)cc3c3ccccc43)c2)cc1 (centres undefined)
fluorescence lifetime (in Cc1ccccc1): 2.14 ns

Structure (SMILES): CC(=O)c1nc(-c2ccc(N(C)C)cc2)oc1C
fluorescence lifetime (in CC#N): 1.91 ns
fluorescence lifetime (in CCO): 1.66 ns
fluorescence lifetime (in CCOC(C)=O): 1.87 ns
fluorescence lifetime (in CCOCC): 1.64 ns
fluorescence lifetime (in ClCCl): 3.68 ns

Structure (SMILES): Cc1cc(C)c2nc3c(=O)n(C)c(=O)nc-3n(C)c2c1
fluorescence lifetime (in CC#N): 3.9 ns

Structure (SMILES): CCCCCCCCCCCCN1C(=O)c2c(c3ccc4cc(-c5ccc(N(C)C)cc5)c(OC)cc4c3c3c2ccc2cc(-c4ccc(N(C)C)cc4)c(OC)cc23)C1=O
fluorescence lifetime (in ClCCl): 5.85 ns

Structure (SMILES): CC1=C2C=CC(C)=[N+]2[B-](F)(F)n2cccc21
fluorescence lifetime (in CCCCCC): 6.61 ns
fluorescence lifetime (in CO): 6.76 ns
fluorescence lifetime (in ClCCl): 6.23 ns

Structure (SMILES): COc1ccc2nc(/N=N/c3ccc(N(C)C)cc3)sc2c1
fluorescence lifetime (in CC#N): 4.92 ns
fluorescence lifetime (in ClCCl): 4.98 ns

Structure (SMILES): COC(=O)[C@@]12N=N[C@@H](C3C[C@H]31)[C@@H]1C[C@@H]12 (some centres undefined)
fluorescence lifetime (in CC#N): 9.2 ns

Structure (SMILES): C=CCOc1nnc(OCCC(F)(F)C(F)(F)C(F)(F)C(F)(F)C(F)(F)C(F)(F)F)nn1
fluorescence lifetime (in ClCCl): 63.8 ns
fluorescence lifetime (in OCC(F)(F)F): 8.7 ns

Structure (SMILES): CCCCCC(=O)c1c2c(c(C(=O)CCCCC)c3c1OC1(CCCC1)O3)OC1(CCCC1)O2
fluorescence lifetime (in CC#N): 20.3 ns
fluorescence lifetime (in CCCCCC): 15.3 ns
fluorescence lifetime (in CCO): 11.6 ns
fluorescence lifetime (in CO): 5.9 ns
fluorescence lifetime (in ClCCl): 24.4 ns

Further lines, results first:

fluorescence lifetime (in ClC(Cl)Cl): 17 ns
Structure (SMILES): CCC1=C(C)C2C(c3ccc(-c4ccc(-c5nc6c7ccccc7c7ccccc7c6n5-c5ccc(C(C)(C)C)cc5)cc4)cc3)c3c(C)c(CC)c(C)n3[B-](F)(F)[N+]2=C1C (centres undefined)

fluorescence lifetime (in ClCCl): 1.51 ns
Structure (SMILES): CCCCCCn1c2ccccc2c2cc(-c3ccc(-c4cc(-c5ccccn5)nc(-c5ccccn5)c4)cc3)ccc21

fluorescence lifetime (in ClCCl): 2.15 ns
Structure (SMILES): Cn1c2ccccc2c2cc(/C=C/C3=[O+][B-](F)(F)OC(/C=C/c4ccc5c(c4)c4ccccc4n5C)=C3c3ccccc3)ccc21

fluorescence lifetime (in C1CCOC1): 4.26 ns
Structure (SMILES): CCn1c2ccccc2c2cc(C#Cc3cc(C#Cc4ccc5c(c4)c4ccccc4n5CC)nc(C#N)n3)ccc21

fluorescence lifetime (in CCO): 3.5 ns
fluorescence lifetime (in ClCCl): 6.9 ns
Structure (SMILES): c1ccc(-c2c3ccccc3c(-c3cncnc3)c3ccccc23)cc1

fluorescence lifetime [1]: 23.7 ns
Structure (SMILES): CC1(C)c2ccccc2N(c2ccc(-c3ncc(C#N)cn3)cc2)c2ccccc21

fluorescence lifetime (in C1CCCCC1): 0.8 ns
fluorescence lifetime (in CC#N): 1.2 ns
fluorescence lifetime (in CO): 1.1 ns
fluorescence lifetime (in ClCCl): 1.1 ns
Structure (SMILES): C(C#Cc1ccc2ccc3cccc4ccc1c2c34)#Cc1cccc2ccccc12

fluorescence lifetime (in ClCCl): 1.66 ns
Structure (SMILES): Cn1c(=O)cc(C(=O)c2ccccc2)c2sc(-c3ccc(C(F)(F)F)cc3)cc21

fluorescence lifetime [1]: 15.7 ns
Structure (SMILES): CC1(C)c2ccccc2N(c2ccc(-c3cnc(C#N)nc3)cc2)c2ccccc21

fluorescence lifetime (in ClC(Cl)Cl): 1.23 ns
Structure (SMILES): Cc1ccc(C#Cc2ccc(C#Cc3ccc(C#Cc4ccccc4C#N)cc3C#N)cc2C#N)cc1

fluorescence lifetime (in ClCCl): 4.52 ns
Structure (SMILES): F[B-]12Oc3ccccc3-c3c4[n+]5c(c([n+]31)-c1ccccc1O2)-c1ccccc1O[B-]5(F)Oc1ccccc1-4

fluorescence lifetime (in C1CCCCC1): 2.1 ns
Structure (SMILES): CN(C)c1ccc2nc(-c3ccccc3)sc2c1

fluorescence lifetime (in CCO): 2.01 ns
Structure (SMILES): c1ccc(-c2nnc(-c3ccc(-n4c5ccccc5c5ccccc54)cc3)o2)cc1

fluorescence lifetime (in C1CCCCC1): 2.5 ns
Structure (SMILES): Cc1ccccc1-c1ccccc1C

fluorescence lifetime (in CO): 0.56 ns
fluorescence lifetime (in ClC(Cl)Cl): 4.05 ns
Structure (SMILES): CCN1C(=CC2=C([O-])C(=Cc3sc4ccccc4[n+]3CC)C2=O)Sc2ccccc21

fluorescence lifetime (in CC#N): 18.8 ns
Structure (SMILES): Fc1ccc(-[c+]2c3ccccc3oc3ccccc32)cc1

Reference: the Deep4Chem optical property database
